The source of these data is ChEMBL document CHEMBL1132466, “Asymmetric synthesis of 9-alkyl-2-benzyl-6,7-benzomorphans: characterization as novel sigma receptor ligands” (J Med Chem, 1999).

The experiment can be described thus: Affinity against Sigma opioid receptor type 1 using [3H](+)-pentazocine in guinea pig brain membranes.

As for `C[C@@H]1[C@@H]2Cc3ccc(O)cc3[C@@]1(C)CCN2Cc1ccccc1`, affinity was put at a Ki of 0.67 nM.
